What all share (format): nucleic-acid assay
Assay [1] has as its system i-motif DNA. Kind of assay: Binding affinity to human telomeric 1ELN i-motif DNA assessed as change in melting temperature at 20 uM at pH 5.5 by FRET assay.
Assay [2] deals with i-motif DNA. Kind of assay: Displacement of thiazole orange from human telomeric 1ELN i-motif DNA at 10 equiv. at pH 7.4 by fluorescent intercalator displacement assay.
Assay [3] deals with i-motif DNA. The assay is described as follows: Displacement of thiazole orange from human ILPR i-motif DNA at 100 equiv. at pH 7.4 by fluorescent intercalator displacement assay.
For assay [4], the system named is Quadruplex DNA. The assay is described as follows: Displacement of thiazole orange from human telomeric IKF1 G4 quadruplex DNA at 10 equiv. at pH 7.4 by fluorescent intercalator displacement assay.
For assay [5], the system named is i-motif DNA. The assay is described as follows: Binding affinity to human ILPR i-motif DNA assessed as change in melting temperature at 20 uM at pH 7.4 by FRET assay.
Assay [6] concerns i-motif DNA. Kind of assay: Binding affinity to human telomeric 1ELN i-motif DNA assessed as change in melting temperature at 20 uM at pH 7.4 by FRET assay.
The test system of assay [7] is i-motif DNA. Kind of assay: Displacement of thiazole orange from human telomeric 1ELN i-motif DNA at 100 equiv. at pH 5.5 by fluorescent intercalator displacement assay.
The subject of assay [8] is Quadruplex DNA. The assay is described as follows: Binding affinity to human telomeric IKF1 G4 quadruplex DNA assessed as change in melting temperature at 20 uM at pH 7.4 by FRET assay.
Assay [9] has as its system i-motif DNA. Kind of assay: Displacement of thiazole orange from human ILPR i-motif DNA at 10 equiv. at pH 5.5 by fluorescent intercalator displacement assay.
Assay [10] concerns Quadruplex DNA. The assay is described as follows: Displacement of thiazole orange from human ILPR G4 quadruplex DNA at 100 equiv. at pH 7.4 by fluorescent intercalator displacement assay.
In assay [11] the test system is i-motif DNA. Kind of assay: Displacement of thiazole orange from human telomeric 1ELN i-motif DNA at 10 equiv. at pH 5.5 by fluorescent intercalator displacement assay.
The subject of assay [12] is i-motif DNA. The assay is described as follows: Binding affinity to human ILPR i-motif DNA assessed as change in melting temperature at 20 uM at pH 5.5 by FRET assay.
The subject of assay [13] is Quadruplex DNA. The assay is described as follows: Displacement of thiazole orange from human telomeric IKF1 G4 quadruplex DNA at 100 equiv. at pH 7.4 by fluorescent intercalator displacement assay.
Assay [14] has as its system i-motif DNA. The assay is described as follows: Displacement of thiazole orange from human ILPR i-motif DNA at 100 equiv. at pH 5.5 by fluorescent intercalator displacement assay.
Assay [15] has as its system dsDNA. Kind of assay: Binding affinity to human 1BNA double stranded DNA assessed as change in melting temperature at 20 uM at pH 7.4 by FRET assay.
Assay [16] concerns Quadruplex DNA. Kind of assay: Binding affinity to human ILPR G4 quadruplex DNA assessed as change in melting temperature at 20 uM at pH 7.4 by FRET assay.
The subject of assay [17] is Quadruplex DNA. Kind of assay: Displacement of thiazole orange from human ILPR G4 quadruplex DNA at 10 equiv. at pH 7.4 by fluorescent intercalator displacement assay.
The test system of assay [18] is i-motif DNA. Kind of assay: Displacement of thiazole orange from human telomeric 1ELN i-motif DNA at 100 equiv. at pH 7.4 by fluorescent intercalator displacement assay.
Assay [19] concerns dsDNA. The assay is described as follows: Displacement of thiazole orange from human 1BNA double stranded DNA at 100 equiv. at pH 7.4 by fluorescent intercalator displacement assay.
Assay [20] relates to dsDNA. Kind of assay: Displacement of thiazole orange from human 1BNA double stranded DNA at 10 equiv. at pH 7.4 by fluorescent intercalator displacement assay.
Assay [21] deals with i-motif DNA. The assay is described as follows: Displacement of thiazole orange from human ILPR i-motif DNA at 10 equiv. at pH 7.4 by fluorescent intercalator displacement assay.
The target of assay [22] is i-motif DNA. The assay is described as follows: Binding affinity to human telomeric i-motif DNA by SPR analysis. For orientation: In SPR one partner is held on a chip, and binding of the other changes the refractive index at the surface.
Assay [23] concerns the target i-motif DNA. Kind of assay: Binding affinity to human c-Myc promoter i-motif DNA by SPR analysis.
For assay [24], the target named is dsDNA. The assay is described as follows: Binding affinity to human double stranded DNA by SPR analysis.

Usually ΔTm stands for the shift of the melting midpoint relative to a reference. On to `O=C(O)[C@H]1O[C@@H](Oc2cc3oc(-c4ccccc4)cc(=O)c3c(O)c2O)[C@H](O)[C@@H](O)[C@@H]1O`, for which the ΔTm in the assay with i-motif DNA [1] was -0.4 °C; with i-motif DNA [5], -2.6 °C; in the assay with i-motif DNA [6], -3.9 °C; with Quadruplex DNA [8], -1.8 °C; in the assay on i-motif DNA [12] it was -0.3 °C; in the assay with dsDNA [15] it was -2.5 °C. Also, the ΔTm with Quadruplex DNA [16] was -3.8 °C. For the same molecule, the Activity with i-motif DNA [2] is -3.8%; in the assay on i-motif DNA [3], 38.5%; in the assay on Quadruplex DNA [4], 24%; with i-motif DNA [7], 36.5%; in the assay with i-motif DNA [9], 9.5%; in the assay with Quadruplex DNA [10], 17.7%. Besides, the Activity in the assay with i-motif DNA [11] is 12.2%; in the assay with Quadruplex DNA [13], 46.3%; with i-motif DNA [14], 35.3%; in the assay on Quadruplex DNA [17] it was 4.9%; with i-motif DNA [18] it was -91.2%; in the assay on dsDNA [19] it was 25.3%. Besides, the results for the Activity with dsDNA [20] and in the assay on i-motif DNA [21] were 8.2% and 23.9%, respectively.
Turning to `O=c1c(-c2ccc(O)cc2)coc2cc(O[C@@H]3O[C@H](CO)[C@@H](O)[C@H](O)[C@H]3O)ccc12`, the ΔTm in the assay with i-motif DNA [1] was -0.3 °C; with i-motif DNA [5], -2.4 °C; in the assay on i-motif DNA [6], 0 °C; in the assay with Quadruplex DNA [8], -2.4 °C; with i-motif DNA [12], -0.1 °C; in the assay on dsDNA [15] it was -2.3 °C. For the same molecule, the ΔTm in the assay with Quadruplex DNA [16] was -1.8 °C. Besides, the Activity with i-motif DNA [2] is 14.9%; in the assay with i-motif DNA [3], 28.9%; in the assay on Quadruplex DNA [4] it was 20.9%; in the assay on i-motif DNA [7] it was 20.3%; with i-motif DNA [9] it was -2.5%; with Quadruplex DNA [10], 2.4%. Also, the Activity in the assay on i-motif DNA [11] was -4.2%; with Quadruplex DNA [13], 29%; in the assay on i-motif DNA [14], 22.6%; in the assay on Quadruplex DNA [17], 2.6%; with i-motif DNA [18], -154%; with dsDNA [19] it was 10.9%. Also, the Activity is 7% with dsDNA [20] and 20% in the assay with i-motif DNA [21].
On to `OC[C@H]1O[C@@H](O[C@@H]2[C@@H](CO)O[C@](O)(CO)[C@H]2O)[C@H](O)[C@@H](O)[C@H]1O`, for which the ΔTm was -0.4 °C with i-motif DNA [1]; -2.7 °C with i-motif DNA [5]; -3.7 °C in the assay with i-motif DNA [6]; -4 °C with Quadruplex DNA [8]; -0.3 °C with i-motif DNA [12]; -2.7 °C in the assay on dsDNA [15]. Moreover, in the assay with Quadruplex DNA [16], the ΔTm was -4.6 °C. Also, the Activity was -54% in the assay on i-motif DNA [2]; 34.7% in the assay on i-motif DNA [3]; 21.4% in the assay on Quadruplex DNA [4]; 20.2% with i-motif DNA [7]; -5% in the assay with i-motif DNA [9]; 0.4% in the assay on Quadruplex DNA [10]. Also, the Activity is -28.4% in the assay with i-motif DNA [11]; 26.1% with Quadruplex DNA [13]; 23.1% with i-motif DNA [14]; 0.9% in the assay with Quadruplex DNA [17]; -68% with i-motif DNA [18]; 9% in the assay on dsDNA [19]. Besides, the Activity with dsDNA [20] was determined as 4.3%; in the assay with i-motif DNA [21] it was 26.7%.
For `O=c1ccc2cc(O[C@@H]3O[C@H](CO)[C@@H](O)[C@H](O)[C@H]3O)c(O)cc2o1`, the ΔTm in the assay on i-motif DNA [1] was -0.4 °C; with i-motif DNA [5], -2.6 °C; in the assay with i-motif DNA [6], -6.4 °C; in the assay on Quadruplex DNA [8], -7.6 °C; in the assay on i-motif DNA [12] it was 0 °C; with dsDNA [15], -2.7 °C. Moreover, in the assay on Quadruplex DNA [16], the ΔTm was -2.4 °C.
Regarding `O=C(O)C1=CO[C@@H](O[C@@H]2O[C@H](CO)[C@@H](O)[C@H](O)[C@H]2O)[C@@H]2C(CO)=CC[C@H]12`, the ΔTm in the assay on i-motif DNA [1] is -0.5 °C; in the assay with i-motif DNA [5], -2.2 °C; in the assay with i-motif DNA [6], -2.5 °C; in the assay on Quadruplex DNA [8] it was -4.7 °C; in the assay with i-motif DNA [12], -0.3 °C; with dsDNA [15], -4.8 °C. Besides, the ΔTm in the assay on Quadruplex DNA [16] was -3.6 °C. The Activity in the assay on i-motif DNA [2] is 2.6%; in the assay on i-motif DNA [3], 22%; with Quadruplex DNA [4], 23%; in the assay on i-motif DNA [7] it was 22.9%; with i-motif DNA [9], -3.5%; with Quadruplex DNA [10] it was 1.4%. In addition, the Activity with i-motif DNA [11] was -10.2%; with Quadruplex DNA [13], 25.2%; in the assay on i-motif DNA [14] it was 25.3%; in the assay on Quadruplex DNA [17], 4.1%; in the assay with i-motif DNA [18], -37.8%; in the assay with dsDNA [19] it was 9.6%. Besides, the Activity in the assay on dsDNA [20] is 6.4%; with i-motif DNA [21], 12.3%.
`O=c1c(-c2ccc(O)cc2)coc2cc(O[C@@H]3O[C@H](CO)[C@@H](O)[C@H](O)[C@H]3O)cc(O)c12`: the ΔTm is -0.8 °C in the assay on i-motif DNA [1]; -2.4 °C in the assay with i-motif DNA [5]; -5.4 °C in the assay with i-motif DNA [6]; -6.6 °C with Quadruplex DNA [8]; -0.4 °C in the assay on i-motif DNA [12]; -3 °C in the assay with dsDNA [15]. In addition, the ΔTm in the assay on Quadruplex DNA [16] was -4.7 °C. Moreover, the Activity is 16.2% with i-motif DNA [2]; 31.8% in the assay with i-motif DNA [3]; 20.8% in the assay with Quadruplex DNA [4]; 19.3% in the assay on i-motif DNA [7]; 5.3% with i-motif DNA [9]; 6.4% in the assay with Quadruplex DNA [10]. Besides, the Activity is 0.6% in the assay on i-motif DNA [11]; 28.7% in the assay with Quadruplex DNA [13]; 23.5% with i-motif DNA [14]; 1.6% in the assay with Quadruplex DNA [17]; -288% in the assay with i-motif DNA [18]; 14.5% in the assay with dsDNA [19]. Further, the Activity in the assay with dsDNA [20] is 6.2%; with i-motif DNA [21], 24.2%.
Usually Kd stands for the equilibrium constant for the complex coming apart. Low values mean tighter binding, high ones weaker binding. For `NC[C@H]1O[C@H](O[C@H]2[C@H](O)[C@@H](O[C@H]3O[C@H](CO)[C@@H](O)[C@H](N)[C@H]3O)[C@H](N)C[C@@H]2N)[C@H](N)C[C@@H]1O` [TOBRAMYCIN], the Kd came to 17 µM at i-motif DNA [22], 13 µM on i-motif DNA [23] and 18 µM on dsDNA [24].
Take `COC(=O)C1=CO[C@@H](O[C@@H]2O[C@H](CO)[C@@H](O)[C@H](O)[C@H]2O)[C@@H]2C(CO)=CC[C@H]12`: the ΔTm in the assay on i-motif DNA [1] was -0.5 °C; in the assay with i-motif DNA [5] it was -1.8 °C; with i-motif DNA [6], -1.8 °C; in the assay on Quadruplex DNA [8], -6.1 °C; in the assay on i-motif DNA [12] it was -0.1 °C; in the assay with dsDNA [15], -3.5 °C. For the same molecule, in the assay with Quadruplex DNA [16], the ΔTm was -2.9 °C. Further, the Activity in the assay with i-motif DNA [2] is -32%; in the assay on i-motif DNA [3], 31.8%; in the assay with Quadruplex DNA [4], 23.1%; in the assay with i-motif DNA [7], 32.3%; in the assay on i-motif DNA [9], 7.2%; in the assay on Quadruplex DNA [10] it was 1.8%. For the same molecule, the Activity was -9.5% with i-motif DNA [11]; 25.7% in the assay with Quadruplex DNA [13]; 27.9% in the assay on i-motif DNA [14]; -6.7% with Quadruplex DNA [17]; -84.1% with i-motif DNA [18]; 11.2% in the assay with dsDNA [19]. The Activity in the assay with dsDNA [20] was found to be 8.5%; in the assay with i-motif DNA [21], 21.2%.

The values are drawn from ChEMBL document CHEMBL5104132, “Identification of sugar-containing natural products that interact with i-motif DNA” (Bioorg Med Chem Lett, 2022).
